The results in this text go back to US9549932B2, “2-(morpholin-4-yl)-1,7-naphthyridines” (BAYER PHARMA AKTIENGESELLSCHAFT, priority 2014, dated 2017).

full-length human ATR protein, sequence (Q13535 other isoform, or with tags, fused parts or gaps): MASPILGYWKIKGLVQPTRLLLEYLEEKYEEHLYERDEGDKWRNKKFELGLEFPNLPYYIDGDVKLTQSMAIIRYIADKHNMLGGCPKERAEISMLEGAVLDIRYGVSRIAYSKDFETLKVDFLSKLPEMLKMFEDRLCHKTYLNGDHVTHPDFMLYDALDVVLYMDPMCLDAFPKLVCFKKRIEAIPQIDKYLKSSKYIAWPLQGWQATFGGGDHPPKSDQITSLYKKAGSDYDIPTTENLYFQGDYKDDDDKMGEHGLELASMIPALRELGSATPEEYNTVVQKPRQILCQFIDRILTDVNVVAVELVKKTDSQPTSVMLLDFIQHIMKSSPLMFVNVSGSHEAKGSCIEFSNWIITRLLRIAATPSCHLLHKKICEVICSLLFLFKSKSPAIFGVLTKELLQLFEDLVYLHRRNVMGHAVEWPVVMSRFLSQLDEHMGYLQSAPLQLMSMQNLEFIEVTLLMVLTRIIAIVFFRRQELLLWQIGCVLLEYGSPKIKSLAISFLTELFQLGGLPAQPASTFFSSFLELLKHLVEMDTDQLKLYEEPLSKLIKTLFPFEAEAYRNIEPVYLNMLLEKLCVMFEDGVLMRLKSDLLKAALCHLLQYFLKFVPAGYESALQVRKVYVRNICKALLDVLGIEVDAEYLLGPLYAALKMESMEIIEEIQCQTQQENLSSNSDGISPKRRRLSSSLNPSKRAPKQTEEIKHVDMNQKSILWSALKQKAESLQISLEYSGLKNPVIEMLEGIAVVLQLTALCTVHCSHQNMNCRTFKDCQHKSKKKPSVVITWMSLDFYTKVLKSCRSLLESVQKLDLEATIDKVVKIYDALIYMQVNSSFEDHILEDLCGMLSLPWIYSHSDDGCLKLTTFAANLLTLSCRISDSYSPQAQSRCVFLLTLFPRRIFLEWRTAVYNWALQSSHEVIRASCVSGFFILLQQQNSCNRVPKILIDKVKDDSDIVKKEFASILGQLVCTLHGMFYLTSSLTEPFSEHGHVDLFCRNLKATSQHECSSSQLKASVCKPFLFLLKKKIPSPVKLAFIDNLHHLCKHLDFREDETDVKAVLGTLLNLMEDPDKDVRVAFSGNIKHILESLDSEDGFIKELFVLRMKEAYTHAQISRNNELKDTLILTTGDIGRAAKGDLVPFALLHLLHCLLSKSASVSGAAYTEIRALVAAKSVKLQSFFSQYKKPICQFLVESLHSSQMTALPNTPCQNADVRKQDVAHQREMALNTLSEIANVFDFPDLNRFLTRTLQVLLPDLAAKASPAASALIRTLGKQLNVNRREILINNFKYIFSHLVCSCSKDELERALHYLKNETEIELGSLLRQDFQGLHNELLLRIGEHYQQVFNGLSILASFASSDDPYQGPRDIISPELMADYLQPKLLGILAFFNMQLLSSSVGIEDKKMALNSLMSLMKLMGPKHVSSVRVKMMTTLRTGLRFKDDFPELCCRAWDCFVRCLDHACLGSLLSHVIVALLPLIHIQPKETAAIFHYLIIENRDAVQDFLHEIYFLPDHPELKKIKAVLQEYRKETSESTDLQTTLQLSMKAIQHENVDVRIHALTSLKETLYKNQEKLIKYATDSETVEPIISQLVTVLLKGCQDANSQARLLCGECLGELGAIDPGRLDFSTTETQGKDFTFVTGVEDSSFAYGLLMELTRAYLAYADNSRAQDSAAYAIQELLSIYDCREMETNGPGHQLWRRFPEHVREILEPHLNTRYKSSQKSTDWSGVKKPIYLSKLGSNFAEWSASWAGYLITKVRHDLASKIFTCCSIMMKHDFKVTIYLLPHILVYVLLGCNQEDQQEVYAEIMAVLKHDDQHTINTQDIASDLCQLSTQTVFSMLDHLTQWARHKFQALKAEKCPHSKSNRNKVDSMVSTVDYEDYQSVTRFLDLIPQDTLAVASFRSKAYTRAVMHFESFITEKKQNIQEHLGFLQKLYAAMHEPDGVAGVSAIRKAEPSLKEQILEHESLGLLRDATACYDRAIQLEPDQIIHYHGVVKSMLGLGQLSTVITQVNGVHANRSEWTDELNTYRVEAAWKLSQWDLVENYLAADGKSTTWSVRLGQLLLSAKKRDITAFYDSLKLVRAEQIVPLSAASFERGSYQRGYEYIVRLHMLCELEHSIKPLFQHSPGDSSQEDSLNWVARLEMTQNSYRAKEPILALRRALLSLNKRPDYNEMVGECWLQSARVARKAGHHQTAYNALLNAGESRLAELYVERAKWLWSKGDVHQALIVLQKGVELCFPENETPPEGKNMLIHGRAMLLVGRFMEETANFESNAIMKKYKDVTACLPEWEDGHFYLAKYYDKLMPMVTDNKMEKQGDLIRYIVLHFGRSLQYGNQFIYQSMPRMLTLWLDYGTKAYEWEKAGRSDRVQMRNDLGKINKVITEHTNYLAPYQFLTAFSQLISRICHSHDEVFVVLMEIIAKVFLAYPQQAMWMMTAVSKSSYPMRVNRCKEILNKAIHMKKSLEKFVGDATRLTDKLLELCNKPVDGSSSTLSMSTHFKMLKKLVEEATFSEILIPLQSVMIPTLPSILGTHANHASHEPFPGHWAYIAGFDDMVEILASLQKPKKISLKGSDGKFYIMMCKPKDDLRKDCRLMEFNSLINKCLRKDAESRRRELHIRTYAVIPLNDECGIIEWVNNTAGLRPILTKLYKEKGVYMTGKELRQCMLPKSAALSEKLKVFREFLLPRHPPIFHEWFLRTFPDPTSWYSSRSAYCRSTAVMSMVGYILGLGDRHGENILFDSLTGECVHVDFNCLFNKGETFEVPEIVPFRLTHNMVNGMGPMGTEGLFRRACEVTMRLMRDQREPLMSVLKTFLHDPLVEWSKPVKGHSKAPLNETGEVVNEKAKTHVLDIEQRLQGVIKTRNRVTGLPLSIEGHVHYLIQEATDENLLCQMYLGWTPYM
full-length human ATR protein, sequence (Q8WXE1 other isoform, or with tags, fused parts or gaps partner): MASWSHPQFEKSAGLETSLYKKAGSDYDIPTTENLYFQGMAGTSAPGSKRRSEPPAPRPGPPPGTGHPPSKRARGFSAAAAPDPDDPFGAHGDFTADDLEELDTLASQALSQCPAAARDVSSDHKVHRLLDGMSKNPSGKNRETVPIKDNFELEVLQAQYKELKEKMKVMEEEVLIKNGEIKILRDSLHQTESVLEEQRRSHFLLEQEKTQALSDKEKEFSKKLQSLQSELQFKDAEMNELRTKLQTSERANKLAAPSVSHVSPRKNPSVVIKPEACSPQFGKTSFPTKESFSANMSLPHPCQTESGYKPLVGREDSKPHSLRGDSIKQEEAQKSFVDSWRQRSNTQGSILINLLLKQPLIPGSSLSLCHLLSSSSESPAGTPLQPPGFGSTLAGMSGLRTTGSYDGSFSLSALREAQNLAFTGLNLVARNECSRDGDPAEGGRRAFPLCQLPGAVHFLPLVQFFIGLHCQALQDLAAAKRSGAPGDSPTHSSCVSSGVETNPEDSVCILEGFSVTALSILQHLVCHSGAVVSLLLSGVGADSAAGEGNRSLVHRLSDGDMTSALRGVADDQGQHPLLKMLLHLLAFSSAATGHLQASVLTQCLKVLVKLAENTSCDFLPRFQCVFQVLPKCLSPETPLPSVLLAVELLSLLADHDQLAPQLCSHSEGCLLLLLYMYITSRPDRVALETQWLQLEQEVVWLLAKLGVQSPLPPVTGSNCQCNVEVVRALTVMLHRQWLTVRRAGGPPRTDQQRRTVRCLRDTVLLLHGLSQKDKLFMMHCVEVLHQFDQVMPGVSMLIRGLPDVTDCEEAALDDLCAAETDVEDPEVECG

This assay concerns the target full-length human ATR protein (Homo sapiens (Human), UniProt Q13535). As to the kind of experiment: Binding assay ATR (TR-FRET tracer displacement). To be noted: tracer A, TR-FRET; read-out: ATR binding (tracer A) IC50. A digest of the protocol:
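Full-length human GST-ATR co-purified with ATRIP, pre-complexed 30 min at 22 °C with anti-GST-Tb antibody, then pre-bound with compound 10 min. Tracer A or B added (2 µl of 100 nM solution), 30 min at 22 °C.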
For orientation: Time-resolved FRET reads energy transfer from a long-lived donor to a nearby acceptor.
Broadly, the IC50 is the concentration that inhibits the measured activity by half. For `c1cnc2c(-c3cc(N4CCOCC4)nc4c(-c5ccn[nH]5)nccc34)cccc2c1` [Example 380, 2-(morpholin-4-yl)-8-(1H-pyrazol-5-yl)-4-(quinolin-8-yl)-1,7-naphthyridine], the concentration for half-maximal inhibition (IC50) was found to be 1460 nM.
To `Cc1ccc(-c2cc(N3CCOCC3)nc3c(-c4ccn[nH]4)nccc23)s1` [Example 381, 4-(5-methylthiophen-2-yl)-2-(morpholin-4-yl)-8-(1H-pyrazol-5-yl)-1,7-naphthyridine] belongs 121 nM.
To `CCOc1ccc(-c2cc(N3CCOCC3)nc3c(-c4ccn[nH]4)nccc23)cn1` [Example 382, 4-(6-ethoxypyridin-3-yl)-2-(morpholin-4-yl)-8-(1H-pyrazol-5-yl)-1,7-naphthyridine] belongs 199 nM; to `CCOc1ncccc1-c1cc(N2CCOCC2)nc2c(-c3ccn[nH]3)nccc12` [Example 383, 4-(2-ethoxypyridin-3-yl)-2-(morpholin-4-yl)-8-(1H-pyrazol-5-yl)-1,7-naphthyridine], 239 nM; to `c1cnc2ccc(-c3cc(N4CCOCC4)nc4c(-c5ccn[nH]5)nccc34)cc2c1` [Example 384, 2-(morpholin-4-yl)-8-(1H-pyrazol-5-yl)-4-(quinolin-6-yl)-1,7-naphthyridine], 89.2 nM.
For the compound `Nc1ccc(-c2cc(N3CCOCC3)nc3c(-c4ccn[nH]4)nccc23)cn1` [Example 386, 5-[2-(morpholin-4-yl)-8-(1H-pyrazol-5-yl)-1,7-naphthyridin-4-yl]pyridin-2-amine], the IC50 was found to be 173 nM.
Take `c1cc(-c2nccc3c(-c4cc[nH]n4)cc(N4CCOCC4)nc23)[nH]n1` [Example 387, 2-(morpholin-4-yl)-4-(1H-pyrazol-3-yl)-8-(1H-pyrazol-5-yl)-1,7-naphthyridine]: the IC50 amounted to 218 nM.
As for `Cc1ccc(-c2cc(N3CCOCC3)nc3c(-c4ccn[nH]4)nccc23)cn1` [Example 388, 4-(6-methylpyridin-3-yl)-2-(morpholin-4-yl)-8-(1H-pyrazol-5-yl)-1,7-naphthyridine], the IC50 was determined as 79.1 nM.
Turning to `Cn1cccc1-c1cc(N2CCOCC2)nc2c(-c3ccn[nH]3)nccc12` [Example 389, 4-(1-methyl-1H-pyrrol-2-yl)-2-(morpholin-4-yl)-8-(1H-pyrazol-5-yl)-1,7-naphthyridine], the IC50 worked out at 26.6 nM.
On to `Oc1ccc(-c2cc(N3CCOCC3)nc3c(-c4ccn[nH]4)nccc23)cn1` [Example 390, 5-[2-(morpholin-4-yl)-8-(1H-pyrazol-5-yl)-1,7-naphthyridin-4-yl]pyridin-2-ol], for which the IC50 was 663 nM.
For the compound `Fc1cncc(-c2cc(N3CCOCC3)nc3c(-c4ccn[nH]4)nccc23)c1` [Example 394, 4-(5-fluoropyridin-3-yl)-2-(morpholin-4-yl)-8-(1H-pyrazol-5-yl)-1,7-naphthyridine], the concentration for half-maximal inhibition (IC50) came to 119 nM.
With `CSc1ncc(-c2cc(N3CCOCC3)nc3c(-c4ccn[nH]4)nccc23)cn1` [Example 395, 4-[2-(methylsulfanyl)pyrimidin-5-yl]-2-(morpholin-4-yl)-8-(1H-pyrazol-5-yl)-1,7-naphthyridine], the IC50 was found to be 149 nM.
Consider `c1cc(-c2nccc3c(-c4cnc(NC5CC5)nc4)cc(N4CCOCC4)nc23)[nH]n1` [Example 396, N-cyclopropyl-5-[2-(morpholin-4-yl)-8-(1H-pyrazol-5-yl)-1,7-naphthyridin-4-yl]pyrimidin-2-amine], for which the 50% inhibitory concentration (IC50) came to 174 nM.
As to `c1cc(-c2cc(N3CCOCC3)nc3c(-c4ccn[nH]4)nccc23)c2ccncc2c1` [Example 397, 4-(isoquinolin-5-yl)-2-(morpholin-4-yl)-8-(1H-pyrazol-5-yl)-1,7-naphthyridine], the IC50 stood at 95.5 nM.
To `CNC(=O)c1ccc(-c2cc(N3CCOCC3)nc3c(-c4ccn[nH]4)nccc23)cn1` [Example 398, N-methyl-5-[2-(morpholin-4-yl)-8-(1H-pyrazol-5-yl)-1,7-naphthyridin-4-yl]pyridine-2-carboxamide] belongs 120 nM.
For the compound `CC(C)(C)NC(=O)c1cncc(-c2cc(N3CCOCC3)nc3c(-c4ccn[nH]4)nccc23)c1` [Example 399, N-tert-butyl-5-[2-(morpholin-4-yl)-8-(1H-pyrazol-5-yl)-1,7-naphthyridin-4-yl]pyridine-3-carboxamide], the IC50 turned out to be 618 nM.
In the case of `CSc1cncc(-c2cc(N3CCOCC3)nc3c(-c4ccn[nH]4)nccc23)c1` [Example 400, 4-[5-(methylsulfanyl)pyridin-3-yl]-2-(morpholin-4-yl)-8-(1H-pyrazol-5-yl)-1,7-naphthyridine], the IC50 turned out to be 300 nM.
Regarding `c1cc(-c2nccc3c(-c4ccnc5[nH]ccc45)cc(N4CCOCC4)nc23)[nH]n1` [Example 401, 2-(morpholin-4-yl)-8-(1H-pyrazol-5-yl)-4-(1H-pyrrolo[2,3-b]pyridin-4-yl)-1,7-naphthyridine], the concentration for half-maximal inhibition (IC50) is 87.5 nM.
In the case of `Nc1ncccc1-c1cc(N2CCOCC2)nc2c(-c3ccn[nH]3)nccc12` [Example 402, 3-[2-(morpholin-4-yl)-8-(1H-pyrazol-5-yl)-1,7-naphthyridin-4-yl]pyridin-2-amine], the half-inhibitory concentration (IC50) came to 299 nM.
For `COC(=O)c1cc(-c2cc(N3CCOCC3)nc3c(-c4ccn[nH]4)nccc23)cs1` [Example 403, methyl 4-[2-(morpholin-4-yl)-8-(1H-pyrazol-5-yl)-1,7-naphthyridin-4-yl]thiophene-2-carboxylate], the half-inhibitory concentration (IC50) was determined as 194 nM.
For the compound `COc1ncc(C(F)(F)F)cc1-c1cc(N2CCOCC2)nc2c(-c3ccn[nH]3)nccc12` [Example 404, 4-[2-methoxy-5-(trifluoromethyl)pyridin-3-yl]-2-(morpholin-4-yl)-8-(1H-pyrazol-5-yl)-1,7-naphthyridine], the IC50 is 424 nM.
For `CC(C)Oc1ncccc1-c1cc(N2CCOCC2)nc2c(-c3ccn[nH]3)nccc12` [Example 405, 2-(morpholin-4-yl)-4-[2-(propan-2-yloxy)pyridin-3-yl]-8-(1H-pyrazol-5-yl)-1,7-naphthyridine], the IC50 was 419 nM.
To `CC(C)(C)n1cc(-c2cc(N3CCOCC3)nc3c(-c4ccn[nH]4)nccc23)cn1` [Example 407, 4-(1-tert-butyl-1H-pyrazol-4-yl)-2-(morpholin-4-yl)-8-(1H-pyrazol-5-yl)-1,7-naphthyridine] belongs 309 nM; to `c1cc(-c2nccc3c(N4CCCCC4)cc(N4CCOCC4)nc23)[nH]n1` [Example 408, 2-(morpholin-4-yl)-4-(piperidin-1-yl)-8-(1H-pyrazol-5-yl)-1,7-naphthyridine], 65.1 nM; to `OC1CCN(c2cc(N3CCOCC3)nc3c(-c4ccn[nH]4)nccc23)CC1` [Example 409, 1-[2-(morpholin-4-yl)-8-(1H-pyrazol-5-yl)-1,7-naphthyridin-4-yl]piperidin-4-ol], 139 nM.
As for `CN(c1ccccc1)c1cc(N2CCOCC2)nc2c(-c3ccn[nH]3)nccc12` [Example 410, N-methyl-2-(morpholin-4-yl)-N-phenyl-8-(1H-pyrazol-5-yl)-1,7-naphthyridin-4-amine], the IC50 turned out to be 153 nM.
With `CCCN(C)c1cc(N2CCOCC2)nc2c(-c3ccn[nH]3)nccc12` [Example 412, N-methyl-2-(morpholin-4-yl)-N-propyl-8-(1H-pyrazol-5-yl)-1,7-naphthyridin-4-amine], the IC50 came to 162 nM.
On to `c1cc(-c2nccc3c(N4CCCCCC4)cc(N4CCOCC4)nc23)[nH]n1` [Example 413, 4-(azepan-1-yl)-2-(morpholin-4-yl)-8-(1H-pyrazol-5-yl)-1,7-naphthyridine], for which the IC50 turned out to be 279 nM.
Regarding `CC1CCN(c2cc(N3CCOCC3)nc3c(-c4ccn[nH]4)nccc23)CC1` [Example 415, 4-(4-methylpiperidin-1-yl)-2-(morpholin-4-yl)-8-(1H-pyrazol-5-yl)-1,7-naphthyridine], the IC50 amounted to 32.7 nM.
Regarding `NC(=O)C1CCCN(c2cc(N3CCOCC3)nc3c(-c4ccn[nH]4)nccc23)C1` (stereo not shown) [Example 416, 1-[2-(morpholin-4-yl)-8-(1H-pyrazol-5-yl)-1,7-naphthyridin-4-yl]piperidine-3-carboxamide], the IC50 is 251 nM.
Consider `C1=CCN(c2cc(N3CCOCC3)nc3c(-c4ccn[nH]4)nccc23)C1` [Example 417, 4-(2,5-dihydro-1H-pyrrol-1-yl)-2-(morpholin-4-yl)-8-(1H-pyrazol-5-yl)-1,7-naphthyridine], for which the half-inhibitory concentration (IC50) was 1070 nM.
`c1ccc2c(c1)CCCN2c1cc(N2CCOCC2)nc2c(-c3ccn[nH]3)nccc12` [Example 418, 4-(3,4-dihydroquinolin-1(2H)-yl)-2-(morpholin-4-yl)-8-(1H-pyrazol-5-yl)-1,7-naphthyridine]: the IC50 was 94.1 nM.
To `c1ccc2c(c1)CCN(c1cc(N3CCOCC3)nc3c(-c4ccn[nH]4)nccc13)C2` [Example 419, 4-(3,4-dihydroisoquinolin-2(1H)-yl)-2-(morpholin-4-yl)-8-(1H-pyrazol-5-yl)-1,7-naphthyridine] belongs 118 nM; to `c1ccc2c(c1)CN(c1cc(N3CCOCC3)nc3c(-c4ccn[nH]4)nccc13)C2` [Example 420, 4-(1,3-dihydro-2H-isoindol-2-yl)-2-(morpholin-4-yl)-8-(1H-pyrazol-5-yl)-1,7-naphthyridine], 602 nM.
As to `CC(C)(C)OC(=O)[C@@H]1CCCN1c1cc(N2CCOCC2)nc2c(-c3ccn[nH]3)nccc12` [Example 422, tert-butyl 1-[2-(morpholin-4-yl)-8-(1H-pyrazol-5-yl)-1,7-naphthyridin-4-yl]-prolinate], the IC50 was determined as 2240 nM.
With `CC(C)CN(C)c1cc(N2CCOCC2)nc2c(-c3ccn[nH]3)nccc12` [Example 423, N-methyl-N-(2-methylpropyl)-2-(morpholin-4-yl)-8-(1H-pyrazol-5-yl)-1,7-naphthyridin-4-amine], the IC50 was 83.9 nM.
For the compound `CN(c1cccc(F)c1)c1cc(N2CCOCC2)nc2c(-c3ccn[nH]3)nccc12` [Example 424, N-(3-fluorophenyl)-N-methyl-2-(morpholin-4-yl)-8-(1H-pyrazol-5-yl)-1,7-naphthyridin-4-amine], the IC50 turned out to be 241 nM.
